Reference: patent US6358885B1, “Substituted phenylheterocyclic herbicides” (Mississippi State University, priority 1992, dated 2002)

Assays:
cheatgrass = assay: Test B preemergence/postemergence greenhouse plant response rating 0 to 10; format: in vivo, Bromus secalinus; conditions: 0 to 10 scale
How it was run: (§1)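 Postemergence treatment of plants two to eighteen cm tall ran alongside preemergence treatment of planted seed, each using compound in a non-phytotoxic solvent.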

corn = assay: as above; format: in vivo, Zea mays; conditions: 0 to 10 scale
How it was run: as §1

cotton [1] = assay: as above; format: in vivo, Gossypium hirsutum; conditions: 0 to 10 scale
How it was run: as §1

lambsquarters [2] = assay: as above; format: in vivo, Chenopodium album; conditions: 0 to 10 scale
How it was run: as §1

rice = assay: as above; format: in vivo, Oryza sativa; conditions: 0 to 10 scale
How it was run: as §1

wheat = assay: as above; format: in vivo, Triticum aestivum; conditions: 0 to 10 scale
How it was run: as §1

wild oat = assay: as above; format: in vivo, Avena fatua; conditions: 0 to 10 scale
How it was run: as §1

bedstraw = assay: Test C preemergence/postemergence greenhouse plant response rating 0 to 100; format: in vivo, Galium aparine; conditions: POSTEMERGENCE; for Plant response rating, Bedstraw: 0 to 100 scale
How it was run: (§2)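 Compounds in non-phytotoxic solvent applied preemergence to sandy loam one day after planting, postemergence at the 1–4 leaf stage, or to ~2.5 cm floodwater over silt loam.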

cotton [3] = assay: as above; format: in vivo, Gossypium hirsutum; conditions: POSTEMERGENCE; for Plant response rating, Cotton: 0 to 100 scale
How it was run: as §2

crabgrass = assay: as above; format: in vivo, Digitaria sanguinalis; conditions: POSTEMERGENCE; for Plant response rating, Crabgrass: 0 to 100 scale
How it was run: as §2

downy brome = assay: as above; format: in vivo, Bromus tectorum; conditions: POSTEMERGENCE; for Plant response rating Downy Brome: 0 to 100 scale
How it was run: as §2

giant foxtail = assay: as above; format: in vivo, Setaria faberii; conditions: POSTEMERGENCE; for Plant response rating, Giant foxtail: 0 to 100 scale
How it was run: as §2

lambsquarters [4] = assay: as above; format: in vivo, Chenopodium album; conditions: POSTEMERGENCE; for Plant response rating Lambsquarters: 0 to 100 scale
How it was run: as §2

sorghum = assay: as above; format: in vivo, Sorghum bicolor; conditions: POSTEMERGENCE; for Plant response rating, Sorghum: 0 to 100 scale
How it was run: as §2

sugar beet = assay: as above; format: in vivo, Beta vulgaris; conditions: POSTEMERGENCE; for Plant response rating, Sugar beet: 0 to 100 scale
How it was run: as §2

velvetleaf = assay: as above; format: in vivo, Abutilon theophrasti; conditions: POSTEMERGENCE; for Plant response rating, Velvetleaf: 0 to 100 scale
How it was run: as §2

duck salad = assay: Test C flood test plant response rating 0 to 100; format: in vivo, Heteranthera limosa; conditions: for Plant response rating Duck salad: flood test species listed under POSTEMERGENCE, 0 to 100 scale
How it was run: as §2

barnyardgrass = assay: Test C flood test plant response rating 0 to 100; format: in vivo, Echinochloa crus-galli; conditions: for Plant response rating Barnyardgrass 2: flood test species listed under POSTEMERGENCE, 0 to 100 scale
How it was run: as §2

[5] = POSTEMERGENCE section, flood test, Rate 4 g/ha
[6] = Rate 16 g/ha, under POSTEMERGENCE head (flood test species)

SMILES: Fc1cc(Cl)c(OCCCl)cc1-c1nn2c(c1Cl)CCCC2 [Compound 49]
- Plant response rating, Cheatgrass (cheatgrass; POSTEMERGENCE, Rate 50 g/ha): 4
- Plant response rating, Cheatgrass (cheatgrass; POSTEMERGENCE, Rate 200 g/ha): 7
- Plant response rating, Cheatgrass (cheatgrass; PREEMERGENCE, Rate 50 g/ha): 0
- Plant response rating, Cheatgrass (cheatgrass; Rate 200 g/ha, PREEMERGENCE): 2
- Plant response rating, Corn (corn; POSTEMERGENCE, Rate 50 g/ha): 3
- Plant response rating, Corn (corn; POSTEMERGENCE, Rate 200 g/ha): 4
- Plant response rating, Corn (corn; PREEMERGENCE, Rate 50 g/ha): 0
- Plant response rating, Corn (corn; Rate 200 g/ha, PREEMERGENCE): 2
- Plant response rating, Cotton (cotton [1]; POSTEMERGENCE, Rate 50 g/ha): 10
- Plant response rating, Cotton (cotton [1]; POSTEMERGENCE, Rate 200 g/ha): 10
- Plant response rating, Cotton (cotton [1]; PREEMERGENCE, Rate 50 g/ha): 2
- Plant response rating, Cotton (cotton [1]; Rate 200 g/ha, PREEMERGENCE): 2
- Plant response rating, Lambsquarter (lambsquarters [2]; PREEMERGENCE, Rate 50 g/ha): 10
- Plant response rating, Lambsquarter (lambsquarters [2]; Rate 200 g/ha, POSTEMERGENCE): 10
- Plant response rating, Lambsquarter (lambsquarters [2]; Rate 200 g/ha, PREEMERGENCE): 10
- Plant response rating, Rice (rice; POSTEMERGENCE, Rate 50 g/ha): 5
- Plant response rating, Rice (rice; PREEMERGENCE, Rate 50 g/ha): 0
- Plant response rating, Rice (rice; Rate 200 g/ha, POSTEMERGENCE): 6
- Plant response rating, Rice (rice; Rate 200 g/ha, PREEMERGENCE): 0
- Plant response rating, Wheat (wheat; POSTEMERGENCE, Rate 50 g/ha): 5
- Plant response rating, Wheat (wheat; PREEMERGENCE, Rate 50 g/ha): 0
- Plant response rating, Wheat (wheat; Rate 200 g/ha, POSTEMERGENCE): 4
- Plant response rating, Wheat (wheat; Rate 200 g/ha, PREEMERGENCE): 2
- Plant response rating, Wild oat (wild oat; POSTEMERGENCE, Rate 50 g/ha): 3
- Plant response rating, Wild oat (wild oat; PREEMERGENCE, Rate 50 g/ha): 0
- Plant response rating, Wild oat (wild oat; Rate 200 g/ha, POSTEMERGENCE): 4
- Plant response rating, Bedstraw (bedstraw; 62 g/ha): 70
- Plant response rating, Bedstraw (bedstraw; 250 g/ha): 100
- Plant response rating (0 to 100), Bedstraw (bedstraw; Rate 4 g/ha): 20
- Plant response rating (0 to 100), Bedstraw (bedstraw; Rate 16 g/ha): 50
- Plant response rating, Cotton (cotton [3]; 62 g/ha): 100
- Plant response rating, Cotton (cotton [3]; 250 g/ha): 100
- Plant response rating (0 to 100), Cotton (cotton [3]; Rate 4 g/ha): 90
- Plant response rating (0 to 100), Cotton (cotton [3]; Rate 16 g/ha): 90
- Plant response rating, Crabgrass (crabgrass; 62 g/ha): 20
- Plant response rating, Crabgrass (crabgrass; 250 g/ha): 40
- Plant response rating (0 to 100), Crabgrass (crabgrass; Rate 4 g/ha): 10
- Plant response rating (0 to 100), Crabgrass (crabgrass; Rate 16 g/ha): 10
- Plant response rating Downy Brome (downy brome; 62 g/ha): 60
- Plant response rating Downy Brome (downy brome; 250 g/ha): 70
- Plant response rating (0 to 100), Downy Brome (downy brome; Rate 4 g/ha): 30
- Plant response rating (0 to 100), Downy Brome (downy brome; Rate 16 g/ha): 40
- Plant response rating, Giant foxtail (giant foxtail; 62 g/ha): 50
- Plant response rating, Giant foxtail (giant foxtail; 250 g/ha): 60
- Plant response rating (0 to 100), Giant foxtail (giant foxtail; Rate 4 g/ha): 30
- Plant response rating (0 to 100), Giant foxtail (giant foxtail; Rate 16 g/ha): 40
- Plant response rating Lambsquarters (lambsquarters [4]; 62 g/ha): 100
- Plant response rating Lambsquarters (lambsquarters [4]; 250 g/ha): 100
- Plant response rating (0 to 100), Lambsquarters (lambsquarters [4]; Rate 4 g/ha): 100
- Plant response rating (0 to 100), Lambsquarters (lambsquarters [4]; Rate 16 g/ha): 100
- Plant response rating, Sorghum (sorghum; 62 g/ha): 50
- Plant response rating, Sorghum (sorghum; 250 g/ha): 60
- Plant response rating (0 to 100), Sorghum (sorghum; Rate 4 g/ha): 30
- Plant response rating (0 to 100), Sorghum (sorghum; Rate 16 g/ha): 40
- Plant response rating, Sugar beet (sugar beet; 62 g/ha): 100
- Plant response rating, Sugar beet (sugar beet; 250 g/ha): 100
- Plant response rating (0 to 100), Sugar beet (sugar beet; Rate 4 g/ha): 100
- Plant response rating (0 to 100), Sugar beet (sugar beet; Rate 16 g/ha): 100
- Plant response rating, Velvetleaf (velvetleaf; 62 g/ha): 100
- Plant response rating, Velvetleaf (velvetleaf; 250 g/ha): 100
- Plant response rating (0 to 100), Velvetleaf (velvetleaf; Rate 4 g/ha): 50
- Plant response rating (0 to 100), Velvetleaf (velvetleaf; Rate 16 g/ha): 90
- Plant response rating (0 to 100), Duck salad (duck salad; [5]): 20
- Plant response rating (0 to 100), Duck salad (duck salad; [6]): 70
- Plant response rating Duck salad (duck salad; 62 g/ha): 90
- Plant response rating Duck salad (duck salad; 250 g/ha): 95
- Plant response rating (0 to 100), Barnyardgrass 2 (barnyardgrass; [5]): 90
- Plant response rating (0 to 100), Barnyardgrass 2 (barnyardgrass; [6]): 100
- Plant response rating Barnyardgrass 2 (barnyardgrass; 62 g/ha): 100
- Plant response rating Barnyardgrass 2 (barnyardgrass; 250 g/ha): 100
